# Source: article PMC6844378, “Structure activity relationship studies on Amb639752: toward the identification of a common pharmacophoric structure for DGKα inhibitors” (Journal of Enzyme Inhibition and Medicinal Chemistry, 2019)
# Key:
# SAP-deficient T cells = assay: RICD assay in SAP silenced T cells; assay type: cell-based, human; conditions: 10 µM, 30 min pre-treatment, OKT3 10 ng/mL, 24 h; for rescue of RICD (apoptosis) in SAP-deficient T cells: SAP siRNA
# Protocol: PBL were isolated from healthy anonymous human donors by Ficoll-Paque PLUS (GE Healthcare, Chicago, IL) density gradient centrifugation, washed, and resuspended at 2 × 10^6 cell/mL in RPMI-GlutaMAX containing 10% heat inactivated FCS, 2 mM glutamine, and 100 U/mL of penicillin and streptomycin. T cells were activated with 1 µg/mL anti-CD3 (UCHT1) and anti-CD28 (clone CD28.2) antibodies. After three days, activated T cells were washed and cultured in medium additionated of 100 IU/mL rhIL-2 (Peprotech, Rocky Hill, NJ) at 1.2 × 10^6 cells/mL for ≥7 days by changing media for every 2–3 days.
# Activated human PBLs were transfected with 200 pmol of siRNA oligonucleotides specific for the target protein (Stealth Select siRNA; Life Technologies, Carlsbad, CA) or a non-specific control oligo (Life Technologies, Carlsbad, CA). Transient transfections were performed using Amaxa nucleofector kits for human T cells (Lonza, Basel, Switzerland) and the Amaxa Nucleofector II or 4D systems (programmes T-20 or EI-115). Cells were cultured in IL-2 (100 IU/mL) for four days to allow target gene knockdown. Knockdown efficiency was periodically evaluated by Western blotting.
# To test restimulation induced cell death, activated T cells (10^5 cells/well) were plated in triplicate in 96-well round-bottom plate and treated with anti-CD3 (clone OKT3) (10 ng/mL) in RPMI-GlutaMAX supplemented with 100 IU/mL rhIL-2 for 24 h. In these assays, inhibitors (10 µM) were added 30 min before the restimulation with OKT3. 24 h after treatment, cells were stained with 20 ng/mL propidium iodide and collected for a constant time of 30 s per sample on Attune Nxt Flow Cytometer (Thermo Fisher Scientific, Waltham, MA). Cell death is expressed as % cell loss and calculated as: % cell loss=(1−(number of viable cells in sample/number of viable cells in control)×100)
# Results were expressed as mean ± standard error of the mean (SEM). We always compared controls and SAP silenced lymphocytes from the same donors as there is a large individual variability in RICD sensitivity.
# To evaluate inhibitor efficacy in physiological context, we modelled XLP-1 by silencing SAP in primary peripheral blood T lymphocytes (PBLs) and restimulating them with anti-CD3 antibody (OKT3 10 ng/mL, 24 h). We pre-treated the cells with the indicated inhibitors for 30 min at a concentration of 10 µM[8].
# Figure 9. DGKα inhibitors partially restores apoptosis in SAP deficient lymphocytes. […] After 4 days, the cells were restimulated with CD3 agonist OKT3 (10 ng/mL) in presence of respective inhibitor. Vehicle (DMSO) was used as control. Twenty-four hours later, the % of cell loss was evaluated by PI staining. Data are the mean ± SEM of nine independent experiments performed in triplicate.
# DGKα = DGKα (Homo sapiens, UniProt P23743); assay: DGK assay on OST-DGKα enriched MDCK homogenates; assay type: biochemical; parameters: expressed in transfected cells; host or cells: MDCK cells (vector-infected, doxycycline-induced), crude homogenate; conditions: for remaining activity at 100 µM: percentage of residual DGKα activity compared to DMSO control, OST-DGKα overexpressing cell lysates, saturating DAG and ATP, read-out: Residue activity at 100 µM; for IC50: residual OST-DGKα activity at 0.1, 1.0, 10.0 and 100.0 µM
# DGKα, sequence (P23743 whole entry): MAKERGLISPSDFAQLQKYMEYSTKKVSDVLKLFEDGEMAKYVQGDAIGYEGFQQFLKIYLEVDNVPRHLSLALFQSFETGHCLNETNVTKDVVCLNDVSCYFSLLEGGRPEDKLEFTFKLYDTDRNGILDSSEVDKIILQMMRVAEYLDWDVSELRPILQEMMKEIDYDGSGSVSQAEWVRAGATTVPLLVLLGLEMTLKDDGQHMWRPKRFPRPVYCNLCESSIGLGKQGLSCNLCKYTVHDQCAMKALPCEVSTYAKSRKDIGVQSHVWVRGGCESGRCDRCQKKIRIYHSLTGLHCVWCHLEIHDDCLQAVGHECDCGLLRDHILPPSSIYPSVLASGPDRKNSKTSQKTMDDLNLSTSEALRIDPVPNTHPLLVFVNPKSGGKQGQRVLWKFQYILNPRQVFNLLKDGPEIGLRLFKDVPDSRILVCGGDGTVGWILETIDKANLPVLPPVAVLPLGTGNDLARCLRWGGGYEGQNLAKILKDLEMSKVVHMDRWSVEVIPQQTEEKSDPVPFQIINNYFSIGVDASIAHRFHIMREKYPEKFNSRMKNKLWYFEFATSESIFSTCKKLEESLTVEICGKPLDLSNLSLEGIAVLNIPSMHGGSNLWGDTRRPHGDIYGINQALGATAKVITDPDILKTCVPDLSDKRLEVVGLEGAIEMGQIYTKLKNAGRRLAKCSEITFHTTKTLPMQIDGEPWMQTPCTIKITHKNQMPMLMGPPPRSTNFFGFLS
# Protocol: Madin-Darby canine kidney (MDCK) cells stably expressing One Strep Tag DGKα (OST-DGKα) were prepared by infecting MDCK cells with a vector expressing an inducible OST tagged DGKα constructs. MDCK cells infected with empty vector were used as controls. MDCK cells were cultured in MEM (minimal essential medium) with 5% FBS (foetal bovine serum) and 1% antibiotic–antimycotic solution. Routinely, cells were splitted every 3–4 days with trypsin–EDTA 0.25% in standard 100 mm dishes.
# Large cultures of MDCK cells for enzyme preparation were done by plating 5 × 10^6 cells in 245 mm^2 dishes. Once they reached nearly 70% confluence, cells were treated with doxycycline (1 µg/mL, two days). […] Cells were collected with a rubber scraper, homogenised by passing them through a 29 G-needle syringe 20 times and stored in aliquots at –80 °C. Presence of OST-DGKα was confirmed by western blotting and enzyme assay, transduced DGKα has an activity >100 folds the endogenous DGK.
# Essentionally, the same procedure was followed as reported previously in Velnati et al.[9] In brief, DGK activity was assayed by measuring initial velocities (5 min at 27 °C) in presence of saturating substrate concentrations. Reaction conditions: 0.9 µg/µL 1,2-dioleoyl-sn-glycerol, 5 mM ATP, 0.01 µCi/µL [γ^32P]-ATP, 1 mM sodium orthovanadate, 10 mM MgCl2, 1.2 mM EGTA in 7.5 mM Hepes pH 8[12]. Reaction mixture is assembled mixing enzyme (24.5 µL of homogenate), 100× inhibitor or DMSO (0.5 µL), 5× ATP solution (10 µL of 25 mM ATP, 0.05 µCi/µL [γ^32P]-ATP (Perkin-Elmer, Milan, Italy), 5 mM sodium orthovanadate, 50 mM MgCl2), and 3.3× DAG solution (15 µL of 3 µg/µL 1,2-dioleoyl-sn-glycerol resuspended by sonication in 4 mM EGTA in 25 mM Hepes pH 8). The reaction was stopped after 5 min by adding 200 µL of freshly prepared 1 M HCl and lipid was extracted by adding 200 µL of CH3OH:CHCl3 1:1 solution and vortexing for 1 min. The two phases were separated by centrifugation (12,000 RCF for 2 min). Twenty-five microlitres of the lower organic phase was spotted in small drops on silica TLC plates. TLC was run 10 cm and dried before radioactive signals were detected by GS-250 molecular imager and was quantified by quantity one (Bio-Rad, Hercules, CA) software assuring the absence of saturated spots.
# Percentage residual activity was calculated as follows: (OST-DGKα homogenate with inhibitor – vector homogenate)/(OST-DGKα homogenate with DMSO – vector homogenate)×100.
# Data for the screen on OST-DGKα homogenates are the mean of duplicates. The compounds showing inhibitory activity in this assay were tested >4 times and the mean ± SEM is reported.
# To calculate IC50 values of active inhibitors, the inhibitor activity was measured at least three times at 0.1, 1.0, 10.0, and 100.0 µM concentration. Data were analysed using [inhibitor] vs. normalised response parameters with least square [ordinary] curve fitting method in GraphPad PRISM 8.0 software (GraphPad Software, La Jolla, CA) mentioning 95% confidence interval and IC50 values always greater than 0.0. […] In all the experiments, the data were normalised with the controls.
# Each inhibitor was tested in duplicate at least once, and DGKα activity was expressed as percentage of residual DGKα activity compared to DMSO control in the same assay. Assay uses OST-DGKα overexpressing cell lysates in presence of saturating exogenous DAG and ATP. We considered R59022 (commercially available) and the lead compound Amb63975230 as our reference molecules.
# To measure the inhibitor potency, we determined the IC50 values for the compounds that resulted active when tested at 100 µM by measuring the residual OST-DGKα activity over a dose range of inhibitor concentrations (0.1 µM, 1.0 µM, 10.0 µM, and 100.0 µM).
Structure (SMILES),rescue of RICD (apoptosis) in SAP-deficient T cells (SAP-deficient T cells),remaining activity at 100 µM (DGKα; 100 µM) [%],IC50 (DGKα) [nM],effect on RICD in control siRNA-transfected cells (SAP-deficient T cells),inhibition at 100 µM (DGKα; 100 µM) [%]
"Cc1ccc(C(=O)N2CCN(CC(=O)c3c(C)[nH]c4cc(C)ccc34)CC2)cc1 [Compound 20, 1-(2,6-Dimethyl-1H-indol-3-yl)-2-(4-(4-methylbenzoyl)piperazin-1-yl)ethan-1-one]",restore apoptosis,3,1800,–,–
Cc1ccc2c(C(=O)CN3CCN(C(=O)c4ccco4)CC3)c(C)[nH]c2c1 [Amb639752],–,4,6900 ± 3000,slightly reducing,96
"Cc1ccc2c(C(=O)CN3CCN(C(=O)c4ccc(Cl)cc4)CC3)c(C)[nH]c2c1 [Compound 11, 2-(4-(4-Chlorobenzoyl)piperazin-1-yl)-1-(2,6-dimethyl-1H-indol-3-yl)ethan-1-one]",restore apoptosis,6,1600,slightly reducing,–
